ChEMBL document CHEMBL6134873, “Identification of Novel Cyclobutane-Based Derivatives as Potent Acetyl-CoA Carboxylase Allosteric Inhibitors for Nonalcoholic Steatohepatitis Drug Discovery” (J Med Chem, 2025)
pIC50: −log10 of the molar value.

Assays:
[1] = Inhibition of ACC2 in rat skeletal muscle using KH[14C]O3 as substrate measured after 7 mins in presence of ATP by liquid scintillation counter analysis
Acetyl-CoA carboxylase 1 = Acetyl-CoA carboxylase 1 (Homo sapiens, UniProt Q13085)
Description: Inhibition of recombinant human ACC1 using acetyl-Co A as substrate incubated for 60 mins in presence of ATP by ADP-Glo assay

Acetyl-CoA carboxylase 2 = Acetyl-CoA carboxylase 2 (Homo sapiens, UniProt O00763)
Acetyl-CoA carboxylase 2, sequence (O00763 whole entry): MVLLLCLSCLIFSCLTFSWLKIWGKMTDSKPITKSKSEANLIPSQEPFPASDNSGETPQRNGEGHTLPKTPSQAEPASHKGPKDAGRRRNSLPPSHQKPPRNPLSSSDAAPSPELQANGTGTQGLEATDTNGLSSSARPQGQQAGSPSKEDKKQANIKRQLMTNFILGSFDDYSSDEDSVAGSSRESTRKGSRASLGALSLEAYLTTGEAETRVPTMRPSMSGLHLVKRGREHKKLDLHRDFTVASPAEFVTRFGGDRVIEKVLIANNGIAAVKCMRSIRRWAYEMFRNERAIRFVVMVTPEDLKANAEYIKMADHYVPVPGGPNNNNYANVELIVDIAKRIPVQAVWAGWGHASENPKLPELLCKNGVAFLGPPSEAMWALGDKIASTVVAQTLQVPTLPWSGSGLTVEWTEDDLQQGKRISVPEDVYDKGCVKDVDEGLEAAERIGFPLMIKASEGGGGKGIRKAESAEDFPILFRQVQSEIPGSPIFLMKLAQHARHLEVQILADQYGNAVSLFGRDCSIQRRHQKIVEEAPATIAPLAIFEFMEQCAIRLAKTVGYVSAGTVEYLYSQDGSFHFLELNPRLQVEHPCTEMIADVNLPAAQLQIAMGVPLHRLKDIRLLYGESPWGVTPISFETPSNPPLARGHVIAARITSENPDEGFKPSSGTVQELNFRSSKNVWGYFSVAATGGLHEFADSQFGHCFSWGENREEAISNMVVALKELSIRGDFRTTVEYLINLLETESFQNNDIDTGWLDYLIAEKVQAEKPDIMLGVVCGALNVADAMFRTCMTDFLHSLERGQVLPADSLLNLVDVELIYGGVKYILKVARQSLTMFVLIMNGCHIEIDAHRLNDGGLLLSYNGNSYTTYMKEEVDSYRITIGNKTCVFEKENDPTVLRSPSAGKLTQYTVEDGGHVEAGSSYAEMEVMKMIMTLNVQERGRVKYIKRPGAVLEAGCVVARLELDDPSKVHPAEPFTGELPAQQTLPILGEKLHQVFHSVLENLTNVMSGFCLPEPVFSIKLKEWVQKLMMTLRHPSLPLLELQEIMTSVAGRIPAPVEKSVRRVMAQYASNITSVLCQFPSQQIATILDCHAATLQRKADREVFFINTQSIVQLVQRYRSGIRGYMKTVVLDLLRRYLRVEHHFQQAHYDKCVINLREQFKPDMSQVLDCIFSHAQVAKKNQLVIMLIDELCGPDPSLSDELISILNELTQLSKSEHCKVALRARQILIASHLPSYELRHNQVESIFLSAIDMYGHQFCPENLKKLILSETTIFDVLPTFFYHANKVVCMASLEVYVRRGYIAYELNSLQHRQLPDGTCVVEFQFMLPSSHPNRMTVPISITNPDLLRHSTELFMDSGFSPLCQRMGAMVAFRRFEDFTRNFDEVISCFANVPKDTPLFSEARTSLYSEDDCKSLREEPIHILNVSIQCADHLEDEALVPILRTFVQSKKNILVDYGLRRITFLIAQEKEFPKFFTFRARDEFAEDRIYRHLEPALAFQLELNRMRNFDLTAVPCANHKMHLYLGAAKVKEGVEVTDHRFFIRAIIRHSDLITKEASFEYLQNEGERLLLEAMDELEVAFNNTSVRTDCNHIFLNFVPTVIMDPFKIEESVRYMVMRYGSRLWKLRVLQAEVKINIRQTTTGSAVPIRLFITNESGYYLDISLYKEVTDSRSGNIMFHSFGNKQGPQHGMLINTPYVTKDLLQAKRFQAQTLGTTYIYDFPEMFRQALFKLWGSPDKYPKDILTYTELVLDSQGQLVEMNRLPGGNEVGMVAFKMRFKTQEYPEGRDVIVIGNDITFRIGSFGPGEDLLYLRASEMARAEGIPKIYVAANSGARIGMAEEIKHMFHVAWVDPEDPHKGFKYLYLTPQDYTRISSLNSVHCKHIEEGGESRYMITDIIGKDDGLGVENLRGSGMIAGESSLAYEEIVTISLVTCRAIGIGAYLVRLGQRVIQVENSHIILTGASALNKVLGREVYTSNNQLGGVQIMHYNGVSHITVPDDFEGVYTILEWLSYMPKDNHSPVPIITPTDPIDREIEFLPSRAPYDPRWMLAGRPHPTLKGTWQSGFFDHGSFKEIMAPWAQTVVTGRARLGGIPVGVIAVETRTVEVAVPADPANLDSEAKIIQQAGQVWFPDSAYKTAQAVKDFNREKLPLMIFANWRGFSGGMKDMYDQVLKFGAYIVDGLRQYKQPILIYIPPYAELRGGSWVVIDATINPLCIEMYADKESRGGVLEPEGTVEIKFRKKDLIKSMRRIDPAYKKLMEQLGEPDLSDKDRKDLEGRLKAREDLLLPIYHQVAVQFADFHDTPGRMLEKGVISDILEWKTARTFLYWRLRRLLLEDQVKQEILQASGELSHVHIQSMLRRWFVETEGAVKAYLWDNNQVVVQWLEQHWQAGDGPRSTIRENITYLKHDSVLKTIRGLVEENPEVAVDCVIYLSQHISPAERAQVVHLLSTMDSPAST
Description: Inhibition of recombinant human ACC2 using acetyl-Co A as substrate incubated for 60 mins in presence of ATP by ADP-Glo assay

[2] = AUC (0 to t) in Sprague-Dawley rat at 3 mg/kg, po measured for 0.25 to 24 hrs by LC-MS/MS analysis; assay type: ADME, organism-based; settings: in vivo, time 0.25-24 hrs
[3] = Half life in Sprague-Dawley rat at 3 mg/kg, po measured for 0.25 to 24 hrs by LC-MS/MS analysis; assay type: ADME, organism-based; settings: in vivo, time 0.25-24 hrs
[4] = Tmax in Sprague-Dawley rat at 3 mg/kg, po measured for 0.25 to 24 hrs by LC-MS/MS analysis; assay type: ADME, organism-based; settings: in vivo, time 0.25-24 hrs
[5] = Cmax in Sprague-Dawley rat at 3 mg/kg, po measured for 0.25 to 24 hrs by LC-MS/MS analysis; assay type: ADME, organism-based; settings: in vivo, time 0.25-24 hrs
[6] = MRT (0 to t) in Sprague-Dawley rat at 1 mg/kg, iv measured for 0.25 to 24 hrs by LC-MS/MS analysis; assay type: ADME, organism-based; settings: in vivo, time 0.25-24 hrs
[7] = MRT (0 to t) in Sprague-Dawley rat at 3 mg/kg, po measured for 0.25 to 24 hrs by LC-MS/MS analysis; assay type: ADME, organism-based; settings: in vivo, time 0.25-24 hrs
[8] = AUC (0 to t) in Sprague-Dawley rat at 1 mg/kg, iv measured for 0.25 to 24 hrs by LC-MS/MS analysis; assay type: ADME, organism-based; settings: in vivo, time 0.25-24 hrs
[9] = Clearance in Sprague-Dawley rat at 1 mg/kg, iv measured for 0.25 to 24 hrs by LC-MS/MS analysis; assay type: ADME, organism-based; settings: in vivo, time 0.25-24 hrs
[10] = Oral bioavailability in Sprague-Dawley rat at 3 mg/kg measured for 0.25 to 24 hrs by LC-MS/MS analysis; assay type: ADME, organism-based; settings: in vivo, time 0.25-24 hrs
[11] = Volume of distribution in Sprague-Dawley rat at 1 mg/kg, iv measured for 0.25 to 24 hrs by LC-MS/MS analysis; assay type: ADME, organism-based; settings: in vivo, time 0.25-24 hrs
[12] = Half life in Sprague-Dawley rat at 1 mg/kg, iv measured for 0.25 to 24 hrs by LC-MS/MS analysis; assay type: ADME, organism-based; settings: in vivo, time 0.25-24 hrs
[13] = Protein binding in human plasma; assay type: ADME, cell-free; settings: read-out: PPB (converted)
Cytochrome P450 2B6 = target: T1, Cytochrome P450 2B6 (Homo sapiens, UniProt P20813); test: Inhibition of CYP2B6 (unknown origin); assay type: ADME
T1 sequence (P20813 whole entry): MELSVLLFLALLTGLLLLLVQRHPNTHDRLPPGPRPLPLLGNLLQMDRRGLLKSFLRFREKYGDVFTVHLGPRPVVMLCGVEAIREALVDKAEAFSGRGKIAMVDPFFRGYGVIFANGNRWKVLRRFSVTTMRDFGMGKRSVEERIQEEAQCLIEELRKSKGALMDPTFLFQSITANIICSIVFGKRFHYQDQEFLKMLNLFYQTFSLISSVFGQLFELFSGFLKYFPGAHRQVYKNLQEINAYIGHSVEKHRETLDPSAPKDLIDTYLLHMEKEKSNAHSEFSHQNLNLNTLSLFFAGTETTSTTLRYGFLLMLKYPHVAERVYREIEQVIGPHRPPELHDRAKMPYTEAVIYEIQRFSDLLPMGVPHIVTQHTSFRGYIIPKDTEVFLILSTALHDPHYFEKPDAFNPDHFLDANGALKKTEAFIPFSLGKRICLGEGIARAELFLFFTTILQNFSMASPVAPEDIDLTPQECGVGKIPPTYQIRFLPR

Cytochrome P450 2C8 = target: T2, Cytochrome P450 2C8 (Homo sapiens, UniProt P10632); test: Inhibition of CYP2C8 (unknown origin); assay type: ADME
T2 sequence (P10632 whole entry): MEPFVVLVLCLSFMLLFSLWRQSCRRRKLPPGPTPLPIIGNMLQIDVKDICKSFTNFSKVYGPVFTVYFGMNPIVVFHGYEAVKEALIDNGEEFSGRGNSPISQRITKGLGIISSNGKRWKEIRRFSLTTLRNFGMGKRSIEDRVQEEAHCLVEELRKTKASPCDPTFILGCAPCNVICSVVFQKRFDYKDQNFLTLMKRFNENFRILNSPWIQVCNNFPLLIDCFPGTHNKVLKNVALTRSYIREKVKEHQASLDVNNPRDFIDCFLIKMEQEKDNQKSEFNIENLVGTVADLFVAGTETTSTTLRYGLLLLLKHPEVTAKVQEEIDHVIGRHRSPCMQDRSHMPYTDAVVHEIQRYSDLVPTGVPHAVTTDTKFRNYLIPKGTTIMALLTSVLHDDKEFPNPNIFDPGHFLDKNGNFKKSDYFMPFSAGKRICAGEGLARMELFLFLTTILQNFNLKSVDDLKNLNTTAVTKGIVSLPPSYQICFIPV

Cytochrome P450 2C19 = Cytochrome P450 2C19 (Homo sapiens, UniProt P33261); test: Inhibition of CYP2C19 (unknown origin); assay type: ADME
Cytochrome P450 2C19, sequence (P33261 whole entry): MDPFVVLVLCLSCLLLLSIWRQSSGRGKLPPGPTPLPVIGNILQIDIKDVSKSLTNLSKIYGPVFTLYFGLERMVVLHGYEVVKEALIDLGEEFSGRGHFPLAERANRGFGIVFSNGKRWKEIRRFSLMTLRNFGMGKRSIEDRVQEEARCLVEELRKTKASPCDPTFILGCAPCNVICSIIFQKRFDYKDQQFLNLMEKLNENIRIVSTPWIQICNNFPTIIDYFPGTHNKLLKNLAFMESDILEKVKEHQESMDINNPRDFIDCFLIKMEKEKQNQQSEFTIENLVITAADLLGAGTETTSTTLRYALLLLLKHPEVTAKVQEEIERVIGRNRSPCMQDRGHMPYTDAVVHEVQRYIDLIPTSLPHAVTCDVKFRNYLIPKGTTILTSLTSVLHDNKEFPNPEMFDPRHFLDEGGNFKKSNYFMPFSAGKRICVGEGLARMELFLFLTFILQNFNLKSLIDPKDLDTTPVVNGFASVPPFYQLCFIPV

[14] = target: Voltage-gated inwardly rectifying potassium channel KCNH2 (Homo sapiens, UniProt Q12809); test: Inhibition of hERG; assay type: toxicity
Voltage-gated inwardly rectifying potassium channel KCNH2, sequence (Q12809 whole entry): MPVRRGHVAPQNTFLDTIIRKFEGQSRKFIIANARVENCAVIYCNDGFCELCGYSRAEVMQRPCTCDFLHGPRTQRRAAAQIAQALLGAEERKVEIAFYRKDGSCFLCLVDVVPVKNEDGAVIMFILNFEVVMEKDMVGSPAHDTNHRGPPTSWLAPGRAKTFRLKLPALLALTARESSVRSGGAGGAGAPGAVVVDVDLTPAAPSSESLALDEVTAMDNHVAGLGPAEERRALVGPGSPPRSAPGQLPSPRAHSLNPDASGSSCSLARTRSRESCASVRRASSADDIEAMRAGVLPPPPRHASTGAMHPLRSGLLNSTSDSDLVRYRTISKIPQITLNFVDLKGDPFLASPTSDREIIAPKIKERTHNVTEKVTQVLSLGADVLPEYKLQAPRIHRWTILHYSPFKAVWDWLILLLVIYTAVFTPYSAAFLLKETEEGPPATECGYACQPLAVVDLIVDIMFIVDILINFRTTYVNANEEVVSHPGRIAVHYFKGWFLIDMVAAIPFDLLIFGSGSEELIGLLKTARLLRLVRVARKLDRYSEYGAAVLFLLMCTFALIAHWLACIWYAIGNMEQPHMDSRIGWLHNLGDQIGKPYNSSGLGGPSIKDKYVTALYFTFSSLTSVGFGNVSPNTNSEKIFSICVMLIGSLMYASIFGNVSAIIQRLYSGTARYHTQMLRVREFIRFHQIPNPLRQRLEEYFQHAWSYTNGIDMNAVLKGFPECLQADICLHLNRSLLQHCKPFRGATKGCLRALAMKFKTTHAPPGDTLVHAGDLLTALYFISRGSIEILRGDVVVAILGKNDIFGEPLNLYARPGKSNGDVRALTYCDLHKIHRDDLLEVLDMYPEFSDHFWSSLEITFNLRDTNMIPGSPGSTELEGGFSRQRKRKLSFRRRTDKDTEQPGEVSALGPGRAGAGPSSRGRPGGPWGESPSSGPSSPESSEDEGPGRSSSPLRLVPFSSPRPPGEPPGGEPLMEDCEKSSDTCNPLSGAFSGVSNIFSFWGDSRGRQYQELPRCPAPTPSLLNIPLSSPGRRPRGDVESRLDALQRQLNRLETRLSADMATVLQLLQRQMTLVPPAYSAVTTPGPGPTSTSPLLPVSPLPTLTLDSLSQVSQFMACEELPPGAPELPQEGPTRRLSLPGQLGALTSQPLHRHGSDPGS

[15] = Biodistribution in liver of 12 hr-fasted male wild-type Sprague-Dawley rat at 3 mg/kg, po measured after 4 hrs by LC-MS/MS analysis; assay type: ADME, organism-based; settings: in vivo
[16] = Intrinsic clearance in rat liver microsomes; assay type: ADME, Microsome; settings: read-out: CLH
Cytochrome P450 2D6 = Cytochrome P450 2D6 (Homo sapiens, UniProt P10635); test: Inhibition of CYP2D6 (unknown origin); assay type: ADME
Cytochrome P450 2D6, sequence (P10635 whole entry): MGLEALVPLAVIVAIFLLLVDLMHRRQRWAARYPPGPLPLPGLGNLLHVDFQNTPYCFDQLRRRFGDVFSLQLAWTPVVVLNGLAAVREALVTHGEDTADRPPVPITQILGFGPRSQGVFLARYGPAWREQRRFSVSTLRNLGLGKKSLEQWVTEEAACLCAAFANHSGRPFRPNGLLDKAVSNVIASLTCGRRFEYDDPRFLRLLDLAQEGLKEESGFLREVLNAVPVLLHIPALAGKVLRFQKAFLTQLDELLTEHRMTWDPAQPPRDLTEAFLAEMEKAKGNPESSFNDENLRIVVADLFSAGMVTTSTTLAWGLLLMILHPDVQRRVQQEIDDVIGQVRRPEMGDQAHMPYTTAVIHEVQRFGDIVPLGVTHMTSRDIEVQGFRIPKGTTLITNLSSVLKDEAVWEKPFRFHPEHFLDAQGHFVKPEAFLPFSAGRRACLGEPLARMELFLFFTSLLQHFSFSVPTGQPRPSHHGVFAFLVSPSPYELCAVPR

[17] = Intrinsic clearance in mouse liver microsomes; assay type: ADME, Microsome; settings: read-out: CLH
[18] = Inhibition of fatty acid synthesis in human HepG2 cells preincubated for 1.5 hrs followed by [14C] acetate addition measured after 1.5 hrs by liquid scintillation counter analysis; assay type: functional, cell-based
[19] = Intrinsic clearance in human liver microsomes; assay type: ADME, Microsome; settings: read-out: CLH
[20] = Protein binding in rat plasma; assay type: ADME, cell-free; settings: read-out: PPB (converted)
Cytochrome P450 3A4 [21] = target: T3, Cytochrome P450 3A4 (Homo sapiens, UniProt P08684); test: Inhibition of CYP3A4 (unknown origin) using midazolam as substrate; assay type: ADME
T3 sequence (P08684 whole entry): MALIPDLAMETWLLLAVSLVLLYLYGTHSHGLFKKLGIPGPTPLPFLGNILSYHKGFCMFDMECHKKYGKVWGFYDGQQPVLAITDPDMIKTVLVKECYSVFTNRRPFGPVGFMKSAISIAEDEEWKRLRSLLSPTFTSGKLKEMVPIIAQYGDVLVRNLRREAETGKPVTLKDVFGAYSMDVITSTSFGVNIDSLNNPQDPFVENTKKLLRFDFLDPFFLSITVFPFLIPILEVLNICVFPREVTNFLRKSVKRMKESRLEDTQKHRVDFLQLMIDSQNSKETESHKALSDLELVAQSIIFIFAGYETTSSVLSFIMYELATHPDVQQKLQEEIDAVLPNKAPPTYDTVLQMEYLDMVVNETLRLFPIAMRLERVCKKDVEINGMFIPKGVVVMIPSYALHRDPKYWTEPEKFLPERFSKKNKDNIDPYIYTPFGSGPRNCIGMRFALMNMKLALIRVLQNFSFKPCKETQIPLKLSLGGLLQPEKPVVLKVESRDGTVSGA

Cytochrome P450 3A4 [22] = target: T3, Cytochrome P450 3A4; test: Inhibition of CYP3A4 (unknown origin) using testosterone as substrate; assay type: ADME
[23] = Intrinsic clearance in dog liver microsomes; assay type: ADME, Canis lupus familiaris, Microsome; settings: read-out: CLH
Cytochrome P450 2C9 = Cytochrome P450 2C9 (Homo sapiens, UniProt P11712); test: Inhibition of CYP2C9 (unknown origin); assay type: ADME
[24] = Biodistribution in 12 hr-fasted male wild-type Sprague-Dawley rat assessed as increase in ratio of drug concentration in liver/plasma at 3 mg/kg, po measured for 0.25 to 4 hrs by LC-MS/MS analysis; assay type: ADME, organism-based; settings: in vivo, time 0.25-4 hrs
[25] = Intrinsic clearance in monkey liver microsomes; assay type: ADME, Macaca mulatta, Microsome; settings: rhesus monkey, read-out: CLH
Cytochrome P450 1A2 = target: T4, Cytochrome P450 1A2 (Homo sapiens, UniProt P05177); test: Inhibition of CYP1A2 (unknown origin); assay type: ADME
T4 sequence (P05177 whole entry): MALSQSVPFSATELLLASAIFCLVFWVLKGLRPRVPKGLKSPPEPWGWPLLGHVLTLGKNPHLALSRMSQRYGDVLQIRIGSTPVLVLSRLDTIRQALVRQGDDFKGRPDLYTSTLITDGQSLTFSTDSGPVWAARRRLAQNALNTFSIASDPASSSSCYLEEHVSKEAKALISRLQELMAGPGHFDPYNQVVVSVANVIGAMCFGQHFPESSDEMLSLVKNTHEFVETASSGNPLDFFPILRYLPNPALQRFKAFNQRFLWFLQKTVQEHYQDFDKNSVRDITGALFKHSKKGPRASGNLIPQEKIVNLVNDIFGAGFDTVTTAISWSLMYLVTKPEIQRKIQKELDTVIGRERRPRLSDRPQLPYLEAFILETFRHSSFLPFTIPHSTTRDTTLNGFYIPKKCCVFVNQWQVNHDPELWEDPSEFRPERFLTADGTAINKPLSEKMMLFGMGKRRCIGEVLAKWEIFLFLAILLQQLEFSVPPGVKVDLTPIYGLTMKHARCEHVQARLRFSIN

O=C(c1c2ccccc2cc2ccccc12)N1CCC(N2CCC[C@@H](C(=O)N3CCOCC3)C2)CC1
pIC50 [1]: 7.21

COc1ccccc1[C@H](Cn1c(=O)n([C@H]2C[C@](C)(C(=O)O)C2)c(=O)c2c(C)c(-c3ncco3)sc21)OC1CCOCC1
pIC50 (Acetyl-CoA carboxylase 1): 8.86
pIC50 (Acetyl-CoA carboxylase 2): 7.78

COc1ccccc1[C@H](Cn1c(=O)n(CC2(C(=O)O)CC2)c(=O)c2c(C)c(-c3ncco3)sc21)OC1CCOCC1
pIC50 (Acetyl-CoA carboxylase 1): 9.07

COc1ccccc1[C@H](Cn1c(=O)n(C2CN(C(=O)N3CC(C)(O)C3)C2)c(=O)c2c(C)c(-c3ncco3)sc21)OC1CCOCC1
pIC50 (Acetyl-CoA carboxylase 1): 8.02

COc1ccccc1[C@H](Cn1c(=O)n(C2CC(F)(F)C2)c(=O)c2c(C)c(-c3ncco3)sc21)OC1CCOCC1
pIC50 (Acetyl-CoA carboxylase 1): 8.03

COc1ccccc1[C@H](Cn1c(=O)n(C2CN(C(=O)N3CCOCC3)C2)c(=O)c2c(C)c(-c3ncco3)sc21)OC1CCOCC1
pIC50 (Acetyl-CoA carboxylase 1): 8.96
pIC50 (Acetyl-CoA carboxylase 2): 8.04

COc1ccccc1[C@H](Cn1c(=O)n(C2CN(CC(F)(F)F)C2)c(=O)c2c(C)c(-c3ncco3)sc21)OC1CCOCC1
pIC50 (Acetyl-CoA carboxylase 1): 9.02

COc1ccccc1[C@H](Cn1c(=O)n(C2CN(C(=O)c3ncc[nH]3)C2)c(=O)c2c(C)c(-c3ncco3)sc21)OC1CCOCC1
pIC50 (Acetyl-CoA carboxylase 1): 8.82
pIC50 (Acetyl-CoA carboxylase 2): 8.21

COc1ccccc1[C@H](Cn1c(=O)n(C2CN(C(=O)N3CC(C)(C(=O)O)C3)C2)c(=O)c2c(C)c(-c3ncco3)sc21)OC1CCOCC1
pIC50 (Acetyl-CoA carboxylase 1): 7.92

COc1ccccc1[C@H](Cn1c(=O)n(C2CN(C(=O)c3ccccn3)C2)c(=O)c2c(C)c(-c3ncco3)sc21)OC1CCOCC1
pIC50 (Acetyl-CoA carboxylase 1): 8.68
pIC50 (Acetyl-CoA carboxylase 2): 8.19

COc1ccccc1[C@H](Cn1c(=O)n(-c2c(C)ccn3ccnc23)c(=O)c2c(C)c(-c3ncco3)sc21)OC1CCOCC1
pIC50 (Acetyl-CoA carboxylase 1): 7.28

COc1ccccc1[C@H](Cn1c(=O)n([C@H]2C[C@](C)(C(N)=O)C2)c(=O)c2c(C)c(-c3ncco3)sc21)OC1CCOCC1
pIC50 (Acetyl-CoA carboxylase 1): 8.98

COc1ccccc1[C@H](Cn1c(=O)n([C@H]2C[C@@H](C(=O)O)C2)c(=O)c2c(C)c(-c3ncco3)sc21)OC1CCOCC1
AUC(0-t) [2]: 13.8 ng·h/mL
half-life [3]: 24 min
pIC50 (Acetyl-CoA carboxylase 1): 9.10
Tmax [4]: 36 min
Cmax [5]: 21.3 ng/mL
MRT last [6]: 6 min
pIC50 (Acetyl-CoA carboxylase 2): 8.29
MRT last [7]: 24 min
AUC(0-t) [8]: 80.8 ng·h/mL
clearance [9]: 180 mL/min/kg
bioavailability [10]: 5.7%
Vd [11]: 2.6 L/kg
half-life [12]: 12 min

COc1ccccc1[C@H](Cn1c(=O)n(C2CN(C(=O)c3ccccc3)C2)c(=O)c2c(C)c(-c3ncco3)sc21)OC1CCOCC1
pIC50 (Acetyl-CoA carboxylase 1): 8.27

COc1ccccc1[C@H](Cn1c(=O)n(C(C)(C)C(=O)O)c(=O)c2c(C)c(-c3ncco3)sc21)OC1CCOCC1 [FIRSOCOSTAT]
fraction unbound [13]: 0.015
pIC50 (Cytochrome P450 2B6): < 4.52
AUC(0-t) [2]: 628 ng·h/mL
pIC50 (Cytochrome P450 2C8): < 4.52
pIC50 (Acetyl-CoA carboxylase 1): 9.31
pIC50 (Cytochrome P450 2C19): < 4.52
pIC50 [14]: < 4.52
Drug uptake [15]: Active
CLint scaled [16]: 4.3 mL/min/kg
Tmax [4]: 6 min
pIC50 (Cytochrome P450 2D6): < 4.52
CLint scaled [17]: < 38 mL/min/kg
Cmax [5]: 213 ng/mL
pIC50 [18]: 8.32
CLint scaled [19]: 6 mL/min/kg
MRT last [6]: 102 min
fraction unbound [20]: 0.014
pIC50 (Acetyl-CoA carboxylase 2): 8.29
MRT last [7]: 246 min
pIC50 (Cytochrome P450 3A4 [21]): < 4.52
pIC50 (Cytochrome P450 3A4 [22]): < 4.52
AUC(0-t) [8]: 409 ng·h/mL
CLint scaled [23]: 7.2 mL/min/kg
pIC50 (Cytochrome P450 2C9): < 4.52
clearance [9]: 33.3 mL/min/kg
Drug uptake [24]: Active
bioavailability [10]: 51.1%
Vd [11]: 21.4 L/kg
CLint scaled [25]: < 13 mL/min/kg
half-life [12]: 426 min
pIC50 (Cytochrome P450 1A2): < 4.52
